Source: patent US11034656B2, “Maleate salts of (E)-N-(3-cyano-7-ethoxy-4-((4-phenoxyphenyl)amino) quinolin-6-yl)-4-(dimethylamino)but-2-enamide and crystalline forms thereof” (TELIGENE LTD, priority 2017, dated 2021)
Counter-ions that a name gives are not always drawn. Like-named read-outs stand apart in the source and are kept apart here.

Experiments:
Hygroscopicity test = assay type: physicochemical; settings: 25° C.±1° C., relative humidity 80%±2%, 24 hours, (m3−m2)/(m2−m1)*100%
Procedure: Hygroscopicity tests of ((E)-N-(3-cyano-7-ethoxy-4-((4-phenoxyphenyl)amino) quinolin-6-yl)-4-(dimethylamino)but-2-enamide in different acid salts have been carried out by the following method:
Take the dry glass weighing bottle which has a plug (outer diameter is 50 mm, high is 15 mm); placed in a suitable 25° C.±1° C. constant temperature dryer (place a saturated solution of ammonium chloride or ammonium sulfate in the lower part) or artificial climate box (set the temperature to 25° C.±1° C. and the relative humidity to 80%±2%) one day before the test, accurately weighting its weight (m1).
Take appropriate amount of the test sample and lay it in the above weighing bottle, the thickness of the test sample is generally 1 mm, accurately weighting its weight (m2).
Open the weighing bottle and place it at the constant temperature and humidity as above-mentioned for 24 hours with its plug.
Accurately weighting its weight (m3), including the weighing bottle and its plug. Percentage of weight gain=(m3−m2)/(m2−m1)*100%

Crystallinity by PXRD = assay type: physicochemical
Procedure: PXRD is performed in Rigaku UltimaIV diffractometer, copper target, λ=1.5406 A; working voltage 40 kv; working current: 40 Ma; scan speed: 60.000 deg./min; scan range: 4.0000->60.0000 deg.

[1] = Bioavailability in SD rats (I.V. and PO); assay type: in vivo; settings: rat, blood, male, I.V. 5 mg/kg, PO 10 mg/kg via gavage

In the case of CCOc1cc2ncc(C#N)c(Nc3ccc(Oc4ccccc4)cc3)c2cc1NC(=O)/C=C/CN(C)C [L-malate salt, (E)-N-(3-cyano-7-ethoxy-4-((4-phenoxyphenyl)amino)quinolin-6-yl)-4-(dimethylamino)but-2-enamide Malate], the “weight gain (%)” value (Hygroscopicity test; Malate) is reported as 16.36% and the “Crystallinity by PXRD” value (Crystallinity by PXRD; Malate) is reported as “amorphous”.
With CCOc1cc2ncc(C#N)c(Nc3ccc(Oc4ccccc4)cc3)c2cc1NC(=O)/C=C/CN(C)C.O=C(O)/C=C\C(=O)O [Maleate salt, (E)-N-(3-cyano-7-ethoxy-4-((4-phenoxyphenyl)amino)quinolin-6-yl)-4-(dimethylamino)but-2-enamide Maleate] the “weight gain (%)” value (Hygroscopicity test) was 0.2%, the “Crystallinity by PXRD” value (Crystallinity by PXRD) was “crytalline” and the bioavailability [1] was 49.6%.
For CCOc1cc2ncc(C#N)c(Nc3ccc(Oc4ccccc4)cc3)c2cc1NC(=O)/C=C/CN(C)C [Sulphate salt, (E)-N-(3-cyano-7-ethoxy-4-((4-phenoxyphenyl)amino)quinolin-6-yl)-4-(dimethylamino)but-2-enamide Sulfate], the “weight gain (%)” value (Hygroscopicity test; Sulfate) was 36.13%.
For CCOc1cc2ncc(C#N)c(Nc3ccc(Oc4ccccc4)cc3)c2cc1NC(=O)/C=C/CN(C)C [Citrate salt, (E)-N-(3-cyano-7-ethoxy-4-((4-phenoxyphenyl)amino)quinolin-6-yl)-4-(dimethylamino)but-2-enamide Citrate], the “weight gain (%)” value (Hygroscopicity test; Citrate) was 27.04%, the “Crystallinity by PXRD” value (Crystallinity by PXRD; Citrate) was “crystalline” and the bioavailability [1] was 36.7%.
For CCOc1cc2ncc(C#N)c(Nc3ccc(Oc4ccccc4)cc3)c2cc1NC(=O)/C=C/CN(C)C [Hydrochloride acid salt, (E)-N-(3-cyano-7-ethoxy-4-((4-phenoxyphenyl)amino)quinolin-6-yl)-4-(dimethylamino)but-2-enamide Hydrochloride], the “weight gain (%)” value (Hygroscopicity test; Hydrochloride) was 46.67% and the “Crystallinity by PXRD” value (Crystallinity by PXRD) was “amorphous”.
